Assay results taken from US12428397B2, “Factor XI activation inhibitors” (Merck Sharp & Dohme LLC, priority 2020, dated 2025).

target: T1, Human coagulation factor (F)XI (Homo sapiens, UniProt P03951); experiment: Inhibition of FXIIa mediated activation of FXI (activation of human Factor XI to XIa by human Factor α-XIIa); assay type: biochemical; conditions: human FXI pre-incubated with compound 30 min at 22° C., activation by human FXIIa 60 min, z-GPR-AFC substrate fluorescence read-out, 4 parameter logistic fit; read-out: Inhibition of FXIIa meditated activation of FXI
T1 construct: purchased Haematologic Technologies Inc. (FXI); Enzyme Research Laboratories (FXIIa) HCXI-150 (FXI); HFXIIa (FXIIa)
Method: Inhibition of FXIIa Mediated Activation of FXI
Activation of Human Factor XI to XIa by Human Factor α-XIIa
The assay was performed in 50 mM HEPES, 150 mM NaCl, 5 mM CaCl2, 0.1% PEG-8000, pH 7.4 buffer in black, flat-bottom, polystyrene microplates (Corning, Cat #3573). Serial dilutions (10-point, 3.333-fold) of the test compounds delivered as 10 mM DMSO stocks were prepared in the Labcyte Echo-qualified PP 384 well microplates (Labcyte, Cat #P-05525). Human coagulation factor (F)XI (Haematologic Technologies Inc., Cat #HCXI-150, concentration 46 nM, 19.5 uL) was pre-incubated with 0.5 uL of the test compounds for 30 min at 22° C. The activation was initiated by addition of 10 uL of human coagulation factor (F)XIIa (Enzyme Research Laboratories, Cat #HFXIIa, concentration 30 nM) and the reaction proceeded for 60 min at 22° C., after which it was quenched by addition of a selective inhibitor of FXIIa (Compound 54 in WO2018093695) concentration 600 uM in DMSO, 1 uL. 10 min after the quench, 29 uL of z-GPR-AFC substrate (Sigma, Cat #C0980-10MG, concentration 200 uM) was added into each well and the detection reaction proceeded for 60 min at 22° C. Fluorescence at 405/510 nm was measured in end-point mode using an Envision plate-reader (Perkin Elmer). IDBS Activity Base XE (ABase) analysis using 4 parameter logistic fit was performed to determine Minimum, Maximum, EC50, and Slope Factor for each compound.

T1 sequence (P03951 19-625): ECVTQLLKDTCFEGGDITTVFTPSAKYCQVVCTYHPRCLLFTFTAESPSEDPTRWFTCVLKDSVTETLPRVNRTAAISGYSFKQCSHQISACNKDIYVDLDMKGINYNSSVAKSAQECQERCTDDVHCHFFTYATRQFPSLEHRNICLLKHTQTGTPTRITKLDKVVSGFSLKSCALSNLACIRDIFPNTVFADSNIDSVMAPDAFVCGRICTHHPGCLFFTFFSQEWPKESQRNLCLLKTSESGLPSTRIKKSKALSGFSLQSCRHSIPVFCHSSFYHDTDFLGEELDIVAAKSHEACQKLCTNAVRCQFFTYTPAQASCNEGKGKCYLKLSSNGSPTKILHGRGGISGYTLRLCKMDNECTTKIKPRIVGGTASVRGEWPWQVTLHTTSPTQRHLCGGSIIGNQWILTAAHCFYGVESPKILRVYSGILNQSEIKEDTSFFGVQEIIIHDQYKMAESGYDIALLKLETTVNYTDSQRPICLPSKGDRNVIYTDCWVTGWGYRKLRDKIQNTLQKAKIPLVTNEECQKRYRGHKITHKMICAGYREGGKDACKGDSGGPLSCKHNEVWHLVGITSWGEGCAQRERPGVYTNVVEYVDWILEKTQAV

Row | EC50 | SMILES
1 | 33.2 nM | O=C(c1cc(C(=O)N2CCCCC2)c2cc(OCc3ccc(C(F)(F)F)nc3)ncc2c1)N1CCC(n2cccn2)CC1 [Example 10, (4-(1H-pyrazol-1-yl)piperidin-1-yl)(5-(piperidine-1-carbonyl)-3-((6-(trifluoromethyl)pyridin-3-yl)methoxy)isoquinolin-7-yl)methanone]
2 | 13.4 nM | O=C(c1cc(C(=O)N2CCCCC2)c2cc(OCc3ncc(C(F)(F)F)cc3Cl)ncc2c1)N1CCC(n2cccn2)CC1 [Example 8, (4-(1H-pyrazol-1-yl)piperidin-1-yl)(3-((3-chloro-5-(trifluoromethyl)pyridin-2-yl)methoxy)-5-(piperidine-1-carbonyl)isoquinolin-7-yl)methanone]
3 | 19.9 nM | O=C(c1cc(C(=O)N2CCCCC2)c2cc(OCc3nc4ccccc4s3)ncc2c1)N1CCC(n2cccn2)CC1 [Example 15, (4-(1H-pyrazol-1-yl)piperidin-1-yl)(3-(benzo[d]thiazol-2-ylmethoxy)-5-(piperidine-1-carbonyl)isoquinolin-7-yl)methanone]
4 | 49.5 nM | O=C(c1cc(C(=O)N2CCCCC2)c2cc(OCc3ccc(Cl)cc3Cl)ncc2c1)N1CCC(n2cccn2)CC1 [Example 13, (4-(1H-pyrazol-1-yl)piperidin-1-yl)(3-((2,4-dichlorobenzyl)oxy)-5-(piperidine-1-carbonyl)isoquinolin-7-yl)methanone]
5 | 45.7 nM | N#Cc1ccc(COc2cc3c(C(=O)N4CCCCC4)cc(C(=O)N4CCC(n5cccn5)CC4)cc3cn2)cn1 [Example 9, 5-(((7-(4-(1H-pyrazol-1-yl)piperidine-l-carbonyl)-5-(piperidine-1-carbonyl)isoquinolin-3-yl)oxy)methyl)picolinonitrile]
6 | 8.8 nM | O=C(c1cc(C(=O)N2CCCCC2)c2cc(OCc3ncc(Cl)cc3Cl)ncc2c1)N1CCC(n2cccn2)CC1 [Example 14, (4-(1H-pyrazol-1-yl)piperidin-1-yl)(3-((3,5-dichloropyridin-2-yl)methoxy)-5-(piperidine-1-carbonyl)isoquinolin-7-yl)methanone]

The remaining lines, values behind:

Row | SMILES | EC50
7 | O=C(c1cc(C(=O)N2CCCCC2)c2cc(OCc3ncc(C(F)(F)F)cc3Cl)ncc2c1)N1CCC(n2ccnn2)CC1 [Example 3, (4-(1H-1,2,3-triazol-1-yl)piperidin-1-yl)(3-((3-chloro-5-(trifluoromethyl)pyridin-2-yl)methoxy)-5-(piperidine-1-carbonyl)isoquinolin-7-yl)methanone] | 32.7 nM
8 | N#CC1(c2ccccc2)CCN(C(=O)c2cc(C(=O)N3CCCCC3)c3cc(OCc4ncc(C(F)(F)F)cc4Cl)ncc3c2)CC1 [Example 2, 1-(3-((3-chloro-5-(trifluoromethyl)pyridin-2-yl)methoxy)-5-(piperidine-1-carbonyl)isoquinoline-7-carbonyl)-4-phenylpiperidine-4-carbonitrile] | 26.8 nM
9 | N#CC1(c2ccccn2)CCN(C(=O)c2cc(C(=O)N3CCCCC3)c3cc(OCc4ncc(C(F)(F)F)cc4Cl)ncc3c2)CC1 [Example 12, 1-(3-((3-chloro-5-(trifluoromethyl)pyridin-2-yl)methoxy)-5-(piperidine-1-carbonyl)isoquinoline-7-carbonyl)-4-(pyridin-2-yl)piperidine-4-carbonitrile] | 24.3 nM
10 | O=C(c1cc(C(=O)N2CCCCC2)c2cc(OCc3ncc(Cl)cc3Cl)ncc2c1)N1CCC(n2ccnn2)CC1 [Example 5, (4-(1H-1,2,3-triazol-1-yl)piperidin-1-yl)(3-((3,5-dichloropyridin-2-yl)methoxy)-5-(piperidine-1-carbonyl)isoquinolin-7-yl)methanone] | 41 nM
11 | N#CC1(c2ccccc2)CCN(C(=O)c2cc(C(=O)N3CCCCC3)c3cc(OCc4nc5ccccc5s4)ncc3c2)CC1 [Example 1, 1-(3-(benzo[d]thiazol-2-ylmethoxy)-5-(piperidine-1-carbonyl)isoquinoline-7-carbonyl)-4-phenylpiperidine-4-carbonitrile] | 37.9 nM
12 | N#CC1(c2ccccc2)CCN(C(=O)c2cc(C(=O)N3CCCCC3)c3cc(OCc4ncc(Cl)cc4Cl)ncc3c2)CC1 [Example 6, 1-(3-((3,5-dichloropyridin-2-yl)methoxy)-5-(piperidine-1-carbonyl)isoquinoline-7-carbonyl)-4-phenylpiperidine-4-carbonitrile] | 19.4 nM
13 | N#CC1(c2ccccc2)CCN(C(=O)c2cc(C(=O)N3CCCCC3)c3cc(OCCCc4cccnc4)ncc3c2)CC1 [Example 4, 4-phenyl-1-(5-(piperidine-1-carbonyl)-3-(3-(pyridin-3-yl)propoxy)isoquinoline-7-carbonyl)piperidine-4-carbonitrile] | 8.5 nM
14 | N#CC1(c2ccccn2)CCN(C(=O)c2cc(C(=O)N3CCCCC3)c3cc(OCc4ncc(Cl)cc4Cl)ncc3c2)CC1 [Example 11, 1-(3-((3,5-dichloropyridin-2-yl)methoxy)-5-(piperidine-1-carbonyl)isoquinoline-7-carbonyl)-4-(pyridin-2-yl)piperidine-4-carbonitrile] | 4.3 nM
15 | N#Cc1cccc(COc2cc3c(C(=O)N4CCCCC4)cc(C(=O)N4CCC(C#N)(c5ccccc5)CC4)cc3cn2)c1 [Example 7, 1-(3-((3-cyanobenzyl)oxy)-5-(piperidine-1-carbonyl)isoquinoline-7-carbonyl)-4-phenylpiperidine-4-carbonitrile] | 23.6 nM
